PubChem BioAssay (NCI)
“And” between values parts separate entries of the source, which are not always exact repeats. Equal values may be shown once.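 Five compound concentrations were applied to cells in 96-well plates for 48 hours; endpoints were derived by simple linear interpolation of the resulting dose-response curve. GI50: concentration for 50% inhibition of growth. Definition used: TGI = concentration required for complete inhibition of growth.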

Legend:
Test in all cases: NCI anticancer screen, dose series, 48 h
HS 578T breast = system: HS 578T breast
A549 NSCLC = system: A549 NSCLC
NCI/ADR-RES ovarian = system: NCI/ADR-RES ovarian
SN12C renal = system: SN12C renal
MOLT-4 leukemia = system: MOLT-4 leukemia
ACHN renal = system: ACHN renal
DU-145 prostate = system: DU-145 prostate
A498 renal = system: A498 renal
786-0 renal = system: 786-0 renal
SF-295 CNS = system: SF-295 CNS

Row | SMILES | GI50 (HS 578T breast) [µM] | TGI (HS 578T breast) | GI50 (A549 NSCLC) [µM] | TGI (A549 NSCLC) | GI50 (NCI/ADR-RES ovarian) | TGI (NCI/ADR-RES ovarian) | GI50 (SN12C renal) | TGI (SN12C renal) | GI50 (MOLT-4 leukemia) [µM] | TGI (MOLT-4 leukemia) | GI50 (ACHN renal) [µM] | TGI (ACHN renal) | GI50 (DU-145 prostate) [µM] | TGI (DU-145 prostate) | GI50 (A498 renal) [µM] | TGI (A498 renal) | GI50 (786-0 renal) [µM] | TGI (786-0 renal) | GI50 (SF-295 CNS) [µM] | TGI (SF-295 CNS) [µM]
1 | COc1ccc2c(c1)C(=O)/C(=C/c1cccc(OCC(=O)c3ccc([N+](=O)[O-])cc3)c1)CO2 | 2.73 | 12.2 µM | 6.72 | 22.8 µM | 2.03 µM | 5.02 µM | 2.92 µM | 11.4 µM | 3.03 | 17.9 µM | 2.32 | 6.41 µM | 2.73 | 7.14 µM | 14.3 | 27.3 µM | 2 | 4.83 µM | 2.26 | 7.1
2 | Cn1c2ccccc2c2c(=O)n(CCCC(=O)NCCc3cnc[nH]3)c3c(-c4ccccc4)nnn3c21 | 10.4 | 22.6 µM | 12.8 | 24.2 µM | > 50 µM | > 50 µM | 8.76 µM | 18.7 µM | 3.95 | 21.5 µM | 9.74 | 17.9 µM | 6.88 | 13.8 µM | 7.58 | 15.2 µM | 2.19 | 8.15 µM | 9.18 | 17.8
3 | CCCCCCCCCCCCSC1=CC(=O)C=CC1=O | 1.96 | 21.8 µM | 9.46 | > 50 µM | 1.65 µM | > 20.6 µM | 3.24 µM | 24.7 µM | 0.218 | 8.97 µM | 9.13 | > 42.4 µM | 15.1 | > 50 µM | 7.96 | 24.3 µM | 9.94 | > 33.5 µM | 1.44 | 4.75
4 | CC(C)c1ccc(C(c2c(O)c3ccccc3oc2=O)c2c(O)c3ccccc3oc2=O)cc1 | – | 61.8 µM | – | 45.7 µM | – | 65.9 µM | – | 48.6 µM | – | 21.9 µM | – | 86.7 µM | – | > 81.8 µM | – | 35.4 µM | – | 40.9 µM | – | 52
5 | CCN(CC)CCNc1ccc(N=Nc2cnc3ccccc3c2)c2ccccc12 | 2.62 | 7.3 µM | 1.92 | 3.5 µM | 2.29 µM | 5.15 µM | 1.64 µM | 3.16 µM | 1.56 | 3.03 µM | 1.61 | 3.15 µM | 1.83 | 3.22 µM | 1.65 | 3.05 µM | 1.93 | 3.35 µM | 1.77 | 3.38
6 | CN(C)c1ccc2cc3c(cc2c1)Oc1ccccc1N3.[Cl][Zn][Cl] | 24.7 | > 100 µM | 20.9 | 51.5 µM | 16.8 µM | 83.3 µM | 11.6 µM | 63.9 µM | 3.1 | 16.2 µM | 1.64 | 3.22 µM | 8.24 | 20.9 µM | 16.9 | 34.7 µM | 2.85 | 9.48 µM | 18 | 39.7
7 | CN(CO)c1nc(N(C)CO)nc(N(C)CO)n1 | 21.4 | 55 µM and 78.3 µM | 23.5 | 64 µM and 26.3 µM | 21.7 µM and 20.7 µM | 54.6 µM and 57.4 µM | 27.6 µM and 19.5 µM | 70.5 µM and 57.8 µM | 23.5 | 77 µM and 128 µM | – | 79.2 µM and 75.6 µM | 29 | 64.8 µM and 76.5 µM | – | 60.7 µM and 54 µM | 29.6 | 56.9 µM and 105 µM | – | > 73.4
8 | O=C1c2c(c3c4ccccc4n(CCCCCCN4CCOCC4)c3c3[nH]c4ccccc4c23)C(=O)N1O | 2.07 | 6.61 µM | 39.8 | > 100 µM | > 69.8 µM | > 100 µM | 6.86 µM | 26.4 µM | 1.79 | 4.63 µM | 4.14 | – | 11.5 | > 100 µM | 9.15 | 25.4 µM | 1.96 | 5.43 µM | 16.8 | 35.7
9 | Cc1cc2oc(=O)cc(OC/C=C3/CCC(=O)O3)c2cc1C | 4.76 | 43.7 µM | 13.4 | 27.1 µM | 5.09 µM | 23.2 µM | 5.2 µM | 22.5 µM | 2.25 | 13.4 µM | 0.804 | 2.04 µM | 2.67 | 12.4 µM | 2.14 | 12 µM | 2.57 | 10.4 µM | 13.7 | 32
10 | CCCn1cc(/C=N\N=C2\C(=O)Nc3ccc(C)cc32)c2ccccc21 | 11.3 | > 100 µM | 7.18 | 39.6 µM | 6.39 µM | 89.9 µM | 3.2 µM | 75.9 µM | 0.682 | 4.54 µM | 3.56 | > 100 µM | 3.88 | 40.6 µM | 1.37 | 7.5 µM | 5.94 | 71.2 µM | 8.41 | 96.6
11 | CCc1nc(N)nc(N)c1-c1ccc(N(C)Cc2ccccc2)c([N+](=O)[O-])c1 | – | 72.7 µM | – | 16 µM | – | 21.4 µM | – | 41.7 µM | – | 8.11 µM | – | 36.1 µM | – | 31.7 µM | – | 19.8 µM | – | 30.3 µM | – | 15.3
12 | O=[N+]([O-])c1cc(C(F)(F)F)cc2n[se]nc12 | – | 75.6 µM | – | 27 µM | – | 5.11 µM | – | 10.6 µM | – | > 45.2 µM | – | 5.89 µM | – | 6.66 µM | – | 31.5 µM | – | 4.85 µM | – | 25.8
13 | O=c1oc2ccc(I)cc2c(=O)n1-c1ccc(I)cc1F | 0.324 | 4.78 µM | 3 | > 51.8 µM | 0.568 µM | 5.69 µM | 0.404 µM | 6.49 µM | 1.35 | 4.94 µM | 0.616 | 11.7 µM | 0.684 | 17.9 µM | 0.166 | 0.546 µM | 2.21 | 6.49 µM | 1.77 | 3.54
14 | Cc1cnc(-c2ccc(-c3ccc(NC(=O)Nc4cccc(C(F)(F)F)c4)cc3F)c3c2C(=O)NC3)[nH]1 | 2.46 | 35.4 µM | 7.49 | > 47.9 µM | 31.4 µM | > 100 µM | 0.304 µM | 35.3 µM | 1.37 | > 53.4 µM | 1.97 | > 52.8 µM | 11.5 | 35.6 µM | 0.115 | 3.13 µM | 16.8 | > 51.8 µM | 4.06 | 33.6
15 | N#Cc1ccc(O)c(C2=NCC(c3ccc(-c4ccccc4)cc3)O2)c1 (stereo unspecified) | 0.867 | 31.9 µM | 0.418 | 8.06 µM | 0.148 µM | 5.7 µM | 0.606 µM | 16.9 µM | 0.482 | 27.7 µM | 0.418 | 12.4 µM | 0.732 | 16 µM | 0.402 | 18.5 µM | 0.626 | 11.9 µM | 0.335 | 11.8
